“Also recorded” adds a separate entry of the source.
Experiments:
[1] = system: (B6×CBA)F1 irradiated recipient mice; experiment: CD4+ T cell-mediated graft-versus-host disease lethality; format: in vivo, mouse; conditions: 100 μg i.v. in 0.5% DMSO on days 0, 3 and 6 post-transplant, vs untreated control, p<0.001, FIG. 5
Procedure: The lead organic compound TJU103 (N-(3-indoylmethylene)-isonicotinic hydrazone) was tested for in vivo inhibition of CD4^+ T cell-mediatedgraft-versus-host disease lethality. (B6×CBA)F1 irradiated recipient mice were transplanted by i.v. injection with haploidentical (B6×DBA/2)F1 T cell-depleted bone marrow (ATBM) and CD4^+ T cells (3×10^6), which induces lethal graft-versus-host disease (GVHD). TJU103 was administered by i.v. injections at a dose of 100 μg in 0.5% DMSO on days 0, 3, and 6 post-transplant. […] Median survival times were calculated and statistical comparisons were performed by Wilcoxin signed-rank non-parametric analysis using SYSTAT 5.2 software.

[2] = system: C57B1/6 mice challenged with C57B1/6.H-2^bm12 tail skin; experiment: Class II MHC disparate skin allograft rejection (CD4+ T cell-mediated B6 anti-bm12 response); format: in vivo, mouse; conditions: TJU103 single i.v. 100 μg in 0.5% DMSO 3 hours before transplantation, vs 0.5% DMSO diluent, FIG. 6
Procedure: The lead organic compounds were tested for inhibition of CD4^+ T cell-mediated skin allograft rejection using the MHC class II disparate model of C57B1/6 mice challenged with C57B1/6.H-2^bm12 tail skin. Following a modified method of Bailey and Usama (1960, Transplant. Bull. 7:424-425), donor tail skin grafts (0.25 cm×0.5 cm) were transplanted onto the ventral side of the tail of the recipient mouse, covered with a glass tube and held into position with short strips of adhesive tape for 2 days. The tubes were removed and the grafts monitored every other day for up to 80 days. […] Syngeneic grafts were also transplanted as negative controls for rejection. Median survival times (MST) were calculated and statistical comparisons were performed by Wilcoxin signed-rank non-parametric analysis utilizing SYSTAT 5.2 software.
The compounds were injected 3 hours before transplantation at a dosage of 50 μg in 0.2 ml 0.25% DMSO. […] Each group contained 4 animals except the TJU102 group, which contained 5 animals.
The lead organic compound TJU103 (N-(3-indoylmethylene)-isonicotinic hydrazone) was tested for inhibition of CD4^+ T cell-mediated skin allograft rejection using the CD4^+ T cell-mediated B6 anti-bm12 response. […] Median survival times were calculated and statistical comparisons were performed by Wilcoxin signed-rank non-parametric analysis using SYSTAT 5.2 software.

CD4-MHC class II binding = target: T1, CD4-MHC class II binding (Homo sapiens, UniProt P01730); experiment: CD4-MHC class II cell adhesion (rosette formation) assay, CD4-transfected COS-7 cells with Raji B cells; format: cell-based; conditions: 100 μM compound, FIG. 2
T1 construct: expressed in transfected cells; host or cells: COS-7 cells (CD4, plasmid T4-pcDNA3); Raji B cells (endogenous MHC class II)
From the text: The capacity of a compound to inhibit the interaction of CD4 and class II MHC gene products can be determined by a cell rosetting assay. A cell line, such as Cos-7, Cos-1 or the like, can be transiently transfected with a plasmid bearing a human CD4 cDNA operably linked to a promoter. In an alternative embodiment a COS-1 cell line can be stably transformed with a human CD4 expression plasmid. The human CD4expressing cells and a human class II MHC expressing cell are mixed so that cellular rosettes are formed.
No inhibition of resetting was observed when CD8-pcDNA3 transfected cells were rosetted with Raji cells, which also express MHC, class I products.
The sequence of human CD4 CDNA is given in Maddon, P. J. et al., 1985, CELL 42:93-104, which sequence is hereby incorporated by reference in its entirety. Maddon et al. refers to human CD4 as "T4." The plasmid T4-pMV7, containing the human CD4 cDNA is available from the AIDS Research and Reference Reagent Program, Division of AIDS, NIAID, NIH (McKesson BioServices, Rockville, Md.). The 3.0 Kb Eco R1 fragment of T4-pMV7 contains the 1.5 Kb CD4 CDNA.
For transfection of COS-7 cells, a CD4-expression plasmid T4-pcDNA3, was constructed by subcloning the 3.0 Kb Eco R1 fragment of T4-pMV7 into the EcoRI site of the mammalian expression vector pcDNA3 (INVITROGEN). Transfection was accomplished by DOSPER liposomal transfection reagent (BOEHRINGER MANNHEIM), by the following modification of the manufacturer's protocol.
9. Determine the CD4 expression levels as a measure of transfection efficiency by flow cytometry analysis. Usually between 30% and 40% of transfected COS-7 cells expressed human CD4 as defined by immunofluorescence binding assay for the interaction between CD4 and class II MHC proteins in the presence of organic chemicals by rosette formation: Raji B cells 10^7 in 1 ml of RPMI medium with 10% FCS and […] were added to each well 48 h post-transfection and incubated with transfected COS-7 cells in the presence of the test compound (individually 200 μM) at 37° C. for 1 h. Following incubation, wells were washed five or six times by dropping RPMI medium with FCS into wells. Rosette formation between Raji cells and transfected COS-7 cells was scored microscopically at 100-fold magnification. The number of rosette containing more than five Raji cells was counted in 10 random optical fields in each individual well; 300-400 rosettes per well were counted as the positive control for rosette formation without any inhibition in the absence of any chemicals. The inhibition activity for rosette formation for each chemical was determined by the ratio of the number of rosettes obtained in the presence of this chemical to the number of rosettes in the positive control. […]

SJL mice = experiment: EAE inhibition in vivo (PLP-induced acute EAE); design: species or system mouse; conditions: single i.v. injection of 50 μg in 0.25% DMSO on day 12 post-challenge, FIG. 3
Procedure: The lead organic compounds were tested for in vivo immunosuppressive activity in murine EAE, an animal model for multiple sclerosis. An acute form of EAE was induced in SJL mice by subcutaneous challenge with proteolipid (PLP) epitope, MacRae, B. L., et al., 1995, J. Neuroimmunol. 60:17-28, (100 μg in 0.15 ml PBS emulsified in an equal volume of Complete Freund's Adjuvant) on days 0 and 7. Pertussis (Michigan Biological Products, Lansing Mich.) was administered 30 min after antigen injection on day 7 (0.25 ml containing 5×10^9 inactivated organisms, i.v.). Clinical symptoms of EAE were evaluated based on a 0-5 scale of ascending severity of symptoms, as previously described. Korngold, R., et al., 1986, Immunogenetics 24:309-315. The organic compounds were administered by a single i.v. injection of 50 μg of the compound in 0.25% DMSO (the compounds were not soluble in water alone) on day 12 post-challenge.

[3] = system: B6 recipient mice with bm1 tail skin allografts; experiment: Class I MHC disparate skin allograft survival (CD8+ T cell-mediated B6 anti-bm1 response); format: in vivo, mouse; conditions: TJU103 single i.v. 100 μg in 0.5% DMSO 3 hours before transplantation, vs 0.5% DMSO diluent, FIG. 7
Procedure: The lead organic compound TJU103 (N-(3-indoylmethylene)-isonicotinic hydrazone) was tested for inhibition of CD8^+ T-cell mediated allograft survival using the CD8^+ T cell-mediated B6 anti-bm1 response. A single i.v. injection of 100 μg of TJU103 in 0.5% DMSO was administered into B6 recipient mice 3 hours before transplantation of MHC class I-disparate bm1 tail skin allografts following a modified method of Bailey and Usama (1960, Transplant Bull. 7:424 425). A group of mice were treated with anti-CD8 monoclonal antibody (2.43) as a […]. Median survival times were calculated and statistical comparisons were performed by Wilcoxin signed-rank non-parametric analysis using SYSTAT 5.2 software.

Structure (SMILES): O=C(NN=Cc1c[nH]c2ccccc12)c1ccncc1 [TJU103, N-(3-indoylmethylene)-isonicotinic hydrazone]
- median survival time of GVHD recipients [1]: significantly prolongs the median survival time; also recorded: effective in prolonging median survival time
- survival time of bm12 allografts [2]: prolongs survival time of the allografts; also recorded: effective in prolonging the median survival time of the allografts
- inhibition at 100 µM (CD4-MHC class II binding): > 40%
- severity of EAE (SJL mice): statistically significant effect
- survival time of bm1 allografts [3]: does not prolong survival time of the allografts

Structure (SMILES): Cn1c(CSCc2nc(-c3ccc(Cl)cc3)cs2)nnc1SCc1ccc(Cl)cc1 [TJU101, 5-(4-chlorobenzylthio)-3-{[(4-chlorophenyl)-2-thiazolyl]methylthiomethyl}-4-methyl-1,2,4-triazole]
- inhibition at 100 µM (CD4-MHC class II binding): > 40%

Structure (SMILES): O=C(Nc1ccc(Cl)cc1Cl)c1nc(Cn2cncn2)n[nH]1 [TJU104, N-(2,4-dichlorophenyl)-3-(1,2,4-triazol-1-ylmethyl)-1,2,4-triazole-5-carboxamide]
- inhibition at 100 µM (CD4-MHC class II binding): > 40%
- severity of EAE (SJL mice): statistically significant effect

Structure (SMILES): COc1ccc(-c2cn3c(n2)sc2ccccc23)cc1 [TJU102]
- inhibition at 100 µM (CD4-MHC class II binding): > 40%
